Results from PMC4516224 (Pharmaceutical research, 2008).
Each block holds one compound with its values, some of them ahead of it.

Legend:
MRP2 = MRP2 (Homo sapiens, UniProt Q92887); assay: Bi-directional transport across MDCK-MRP2 cell monolayers; format: in vitro ADME; conditions: pH 7.4
rPCEC [1] = assay: Cellular accumulation of [14C] erythromycin in rPCEC; format: cell-based, rabbit
P-gp = P-gp (Homo sapiens, UniProt P08183); assay: Bi-directional transport across MDCK-MDR1 cell monolayers; format: in vitro ADME; conditions: MDCK-MDR1, pH 7.4
rPCEC [2] = assay: Cell proliferation assay; format: cell-based, rabbit; conditions: steroid 500 μM with erythromycin, 12 h, data not shown
[3] = rabbit; in the absence of an inhibitor

P-gp, sequence (P08183 whole entry): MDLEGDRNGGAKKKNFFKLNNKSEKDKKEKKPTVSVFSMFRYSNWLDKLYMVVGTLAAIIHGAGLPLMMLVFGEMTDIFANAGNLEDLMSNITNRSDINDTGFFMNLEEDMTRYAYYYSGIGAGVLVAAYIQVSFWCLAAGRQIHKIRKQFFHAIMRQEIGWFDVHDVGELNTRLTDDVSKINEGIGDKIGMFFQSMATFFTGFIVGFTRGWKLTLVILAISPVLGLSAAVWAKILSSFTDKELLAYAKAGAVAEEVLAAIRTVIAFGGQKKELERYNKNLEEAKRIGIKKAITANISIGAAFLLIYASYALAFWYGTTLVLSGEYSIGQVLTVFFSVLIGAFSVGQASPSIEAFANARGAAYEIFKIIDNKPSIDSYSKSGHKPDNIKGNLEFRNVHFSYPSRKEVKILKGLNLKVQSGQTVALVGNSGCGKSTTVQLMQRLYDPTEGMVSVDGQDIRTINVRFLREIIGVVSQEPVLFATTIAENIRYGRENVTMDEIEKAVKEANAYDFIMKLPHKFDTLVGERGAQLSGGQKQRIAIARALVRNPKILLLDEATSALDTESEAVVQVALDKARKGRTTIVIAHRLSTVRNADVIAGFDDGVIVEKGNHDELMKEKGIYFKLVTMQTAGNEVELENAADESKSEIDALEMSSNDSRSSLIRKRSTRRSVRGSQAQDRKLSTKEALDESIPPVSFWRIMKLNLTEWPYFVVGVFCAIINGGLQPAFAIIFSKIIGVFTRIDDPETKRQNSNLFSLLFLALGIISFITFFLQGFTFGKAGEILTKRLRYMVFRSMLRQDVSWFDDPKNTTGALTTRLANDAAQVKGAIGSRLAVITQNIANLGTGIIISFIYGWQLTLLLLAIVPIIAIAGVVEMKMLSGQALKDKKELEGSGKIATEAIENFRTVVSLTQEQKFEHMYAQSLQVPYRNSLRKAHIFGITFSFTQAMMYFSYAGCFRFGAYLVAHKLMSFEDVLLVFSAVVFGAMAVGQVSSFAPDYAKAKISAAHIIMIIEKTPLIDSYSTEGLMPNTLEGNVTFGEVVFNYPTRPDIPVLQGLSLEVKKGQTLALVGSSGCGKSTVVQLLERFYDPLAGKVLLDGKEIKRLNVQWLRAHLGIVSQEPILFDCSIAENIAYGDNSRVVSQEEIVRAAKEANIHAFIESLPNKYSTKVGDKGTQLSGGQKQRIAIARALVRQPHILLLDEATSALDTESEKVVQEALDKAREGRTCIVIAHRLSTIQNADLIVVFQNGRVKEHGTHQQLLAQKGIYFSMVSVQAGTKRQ
MRP2, sequence (Q92887 whole entry): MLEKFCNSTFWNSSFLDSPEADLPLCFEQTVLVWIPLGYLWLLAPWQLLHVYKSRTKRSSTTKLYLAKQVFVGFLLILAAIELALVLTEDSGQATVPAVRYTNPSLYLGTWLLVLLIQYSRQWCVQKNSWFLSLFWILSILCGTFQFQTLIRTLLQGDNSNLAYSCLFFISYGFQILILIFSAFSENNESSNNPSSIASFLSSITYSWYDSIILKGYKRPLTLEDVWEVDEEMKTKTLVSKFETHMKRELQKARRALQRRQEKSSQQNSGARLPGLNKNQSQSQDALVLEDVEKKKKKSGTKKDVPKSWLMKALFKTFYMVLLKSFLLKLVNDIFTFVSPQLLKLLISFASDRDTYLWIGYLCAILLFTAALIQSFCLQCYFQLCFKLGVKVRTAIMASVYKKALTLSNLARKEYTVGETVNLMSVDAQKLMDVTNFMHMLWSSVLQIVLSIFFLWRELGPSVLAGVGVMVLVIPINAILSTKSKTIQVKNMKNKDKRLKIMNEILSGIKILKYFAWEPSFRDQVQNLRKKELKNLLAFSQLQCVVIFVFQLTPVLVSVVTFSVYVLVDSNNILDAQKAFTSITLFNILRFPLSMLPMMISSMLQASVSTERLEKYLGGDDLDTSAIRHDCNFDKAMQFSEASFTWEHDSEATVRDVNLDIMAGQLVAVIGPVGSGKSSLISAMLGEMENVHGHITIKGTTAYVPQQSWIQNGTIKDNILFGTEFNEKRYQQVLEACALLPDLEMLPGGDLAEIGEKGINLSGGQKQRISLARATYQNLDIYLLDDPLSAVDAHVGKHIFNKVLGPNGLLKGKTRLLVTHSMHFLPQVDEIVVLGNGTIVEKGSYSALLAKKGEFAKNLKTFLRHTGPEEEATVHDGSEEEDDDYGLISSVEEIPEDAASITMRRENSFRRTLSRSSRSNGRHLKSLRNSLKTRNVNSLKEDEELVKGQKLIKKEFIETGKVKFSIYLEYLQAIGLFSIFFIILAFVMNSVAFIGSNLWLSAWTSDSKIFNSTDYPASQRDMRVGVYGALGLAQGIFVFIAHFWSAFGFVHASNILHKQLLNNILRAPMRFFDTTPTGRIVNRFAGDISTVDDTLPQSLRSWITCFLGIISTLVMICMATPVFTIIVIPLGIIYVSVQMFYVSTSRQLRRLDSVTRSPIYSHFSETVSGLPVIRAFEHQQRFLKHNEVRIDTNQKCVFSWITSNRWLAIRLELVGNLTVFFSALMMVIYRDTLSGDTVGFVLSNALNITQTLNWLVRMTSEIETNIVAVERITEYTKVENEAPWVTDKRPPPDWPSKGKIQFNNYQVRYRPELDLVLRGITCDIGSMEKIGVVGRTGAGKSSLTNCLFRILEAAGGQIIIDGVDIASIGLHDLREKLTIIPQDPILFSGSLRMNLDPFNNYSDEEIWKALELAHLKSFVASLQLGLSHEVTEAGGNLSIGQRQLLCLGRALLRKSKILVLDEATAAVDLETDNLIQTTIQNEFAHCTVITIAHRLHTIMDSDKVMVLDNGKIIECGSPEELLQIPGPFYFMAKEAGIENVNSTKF

Papp A→B at 3.5 h, 10 μM (MRP2): 6.04 ± 0.15 ×10⁻⁶ cm/s | Papp B→A at 3.5 h, 10 μM (MRP2): 17.8 ± 0.22 ×10⁻⁶ cm/s | Papp A→B at 3.5 h, 10 μM (P-gp): 6.97 ± 0.21 ×10⁻⁶ cm/s | Papp B→A at 3.5 h, 10 μM (P-gp): 17.7 ± 0.47 ×10⁻⁶ cm/s
SMILES: C[C@]12C=CC(=O)C=C1CC[C@@H]1[C@@H]2C(=O)C[C@@]2(C)[C@H]1CC[C@]2(O)C(=O)CO [PS, prednisone]
Inhibition of erythromycin efflux (rPCEC [1]; steroid 500 μM): ~80% | Cellular toxicity (percentage of viable cells vs control) (rPCEC [2]): not toxic

Corneal absorption rate constant (ka) of erythromycin [3]: 4.54±0.62×10^−5 min^−1
SMILES: CC[C@H]1OC(=O)[C@H](C)[C@@H](O[C@H]2C[C@@](C)(OC)[C@@H](O)[C@H](C)O2)[C@H](C)[C@@H](O[C@@H]2O[C@H](C)C[C@H](N(C)C)[C@H]2O)[C@](C)(O)C[C@@H](C)C(=O)[C@H](C)[C@@H](O)[C@]1(C)O [Ery, erythromycin]

SMILES: C[C@H]1C[C@@H]2[C@H]([C@@H](O)C[C@@]3(C)[C@H]2CC[C@]3(O)C(=O)CO)[C@@]2(C)C=CC(=O)C=C12 [MPL, 6α-methyl prednisolone]
Cellular accumulation of [^14C] erythromycin increased by, relative to control (rPCEC [1]; [14C] erythromycin 0.25 μCi/ml, 15 min, steroid 500 μM): 375% | Inhibition of erythromycin efflux (rPCEC [1]; steroid 500 μM): complete inhibition | Cellular toxicity (percentage of viable cells vs control) (rPCEC [2]): not toxic

SMILES: C[C@]12C=CC(=O)C=C1CC[C@@H]1[C@@H]2[C@@H](O)C[C@@]2(C)[C@H]1CC[C@]2(O)C(=O)CO [PL, prednisolone]
Inhibition of erythromycin efflux (rPCEC [1]; steroid 500 μM): ~80% | Cellular toxicity (percentage of viable cells vs control) (rPCEC [2]): not toxic

SMILES: CN(C)C(=O)CCSC(SCCC(=O)O)c1cccc(/C=C/c2ccc3ccc(Cl)cc3n2)c1 (stereo not shown) [MK571]
Cellular accumulation of [^14C] erythromycin in the presence of specific inhibitor, relative to control (rPCEC [1]; [14C] erythromycin 0.25 μCi/ml, 15 min, GF120918 2 μM, MK571 50 μM): 310%
